According to article PMC7115580 (European Journal of Medicinal Chemistry, 2017):
Where a name gives a salt, the structure may show the parent alone. Read-outs that look alike come from different tables or passages of the source.

How the values were obtained:
[1] = metabolites of proguanil ref 32; cited from earlier work
[2] = molecular target: hDHFR (Homo sapiens, UniProt P00374); format: biochemical; conditions: Lineweaver-Burk plot at 3, 6 and 12 µM; substrate DHF
[3] = molecular target: wild type A/M2 proton channel (Influenza A virus, UniProt P0DOF5); format: biochemical; conditions: 100 μM; TEVC, Xenopus oocytes; data not shown
[4] = test system: HeLa cells
[5] = test system: Vero cells
[6] = test system: human airway epithelial Calu-3 cells; conditions: data not shown
[7] = test system: HeLa cells; remark: listed apart in the source
[8] = test system: Reovirus-1; assay: organism not typed; format: cell-based; conditions: Vero, read-out: Antiviral activity: EC50, Reovirus-1
[9] = test system: Punta Toro virus; assay: microbe, parasite or virus in culture; format: cell-based; conditions: Vero, read-out: Antiviral activity: EC50, Punta Toro virus
[10] = test system: Para-influenza-3 virus; assay: organism not typed; format: cell-based; conditions: Vero, read-out: Antiviral activity: EC50, Para-influenza-3 virus

Chain of wild type A/M2 proton channel (P0DOF5 whole entry, looked up): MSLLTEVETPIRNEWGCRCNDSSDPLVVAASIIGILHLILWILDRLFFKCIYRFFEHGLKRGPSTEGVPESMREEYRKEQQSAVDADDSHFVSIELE
Chain of hDHFR (P00374 whole entry): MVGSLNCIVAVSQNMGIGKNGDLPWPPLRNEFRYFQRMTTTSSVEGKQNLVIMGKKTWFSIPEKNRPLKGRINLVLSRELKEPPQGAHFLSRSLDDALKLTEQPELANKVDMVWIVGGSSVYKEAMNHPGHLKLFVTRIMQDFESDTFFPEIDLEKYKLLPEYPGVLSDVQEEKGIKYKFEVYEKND

| Compound | Cytotoxicity: MCC ([4]; HeLa cells, microscopy) [µM] | Cytotoxicity: MCC ([5]; Vero cells, microscopy) [µM] | also measured |
| --- | --- | --- | --- |
| N=C(N)NC(=N)Nc1ccc(Cl)cc1 [1-(4-chlorophenyl)biguanide] | – | – | Share of the total drug concentration in plasma [1]: ~23% |
| CC1(C)N=C(N)N=C(N)N1c1ccc(Cl)cc1 [Compound 1, cycloguanil, reference compound] | >100 | >100 | Inhibition pattern towards the substrate [2]: competitive inhibition pattern; Inhibition of wild type M2 channel [3]: neither of the three compounds significantly inhibited; Cytotoxicity MCC [6]: > 100 µM; Share of the total drug concentration in plasma [1]: about 30% |
| CC1(C)N=C(N)N=C(N)N1c1ccccc1 [Compound 2] | >100 | >100 | – |
| Cc1ccc(N2C(N)=NC(N)=NC2(C)C)cc1 [Compound 3] | >100 | >100 | – |
| COc1ccc(N2C(N)=NC(N)=NC2(C)C)cc1 [Compound 4] | >100 | >100 | – |
| CC1(C)N=C(N)N=C(N)N1c1ccc(F)cc1 [Compound 5] | >100 | >100 | – |
| CC1(C)N=C(N)N=C(N)N1c1ccc(Br)cc1 [Compound 6] | >100 | >100 | – |
| CC1(C)N=C(N)N=C(N)N1c1ccc([N+](=O)[O-])cc1 [Compound 7] | >100 | >100 | – |
| CC1(C)N=C(N)N=C(N)N1c1ccc(C(=O)O)cc1 [Compound 8] | >100 | >100 | – |
| CCOC(=O)c1ccc(N2C(N)=NC(N)=NC2(C)C)cc1 [Compound 9] | >100 | >100 | – |
| CC1(C)N=C(N)N=C(N)N1c1ccccc1Cl [Compound 10] | >100 | >100 | – |
| CC1(C)N=C(N)N=C(N)N1c1cccc(Cl)c1 [Compound 11] | >100 | – | Cytotoxicity MCC [6]: > 100 µM |
| CC1(C)N=C(N)N=C(N)N1c1cccc(F)c1 [Compound 12, 4,6-Diamino-2,2-dimethyl-1-(3-fluorophenyl)-1,2-dihydrotriazine hydrochloride] | – | – | Cytotoxicity: MCC ([4]; human): ≥100 µM |
| CC1(C)N=C(N)N=C(N)N1c1cccc(Br)c1 [Compound 13] | ≥100 | >100 | Cytotoxicity MCC [6]: > 100 µM |
| CC1(C)N=C(N)N=C(N)N1c1cccc(C(F)(F)F)c1 [Compound 14] | ≥100 | – | Inhibition of wild type M2 channel [3]: neither of the three compounds significantly inhibited; Cytotoxicity MCC ([7]; dihydrofolic acid 1.0 μM): 20 µM; Cytotoxicity MCC ([7]; dihydrofolic acid 2.6 μM): 20 µM; Cytotoxicity MCC ([7]; dihydrofolic acid 16 μM): 20 µM; Cytotoxicity MCC ([7]; dihydrofolic acid 40 μM): 20 µM; Cytotoxicity MCC ([7]; dihydrofolic acid 400 μM): 20 µM; Cytotoxicity MCC ([7]; human): 20 µM; Cytotoxicity MCC ([7]; independent of whether dihydrofolic acid was present or not): 20 µM; Cytotoxicity MCC [6]: > 100 µM |
| CC1(C)N=C(N)N=C(N)N1c1ccc(Cl)cc1Cl [Compound 15] | >100 | >100 | – |

| Compound | Cytotoxicity: MCC ([4]; HeLa cells, microscopy) [µM] | Cytotoxicity: MCC ([5]; Vero cells, microscopy) [µM] | also measured |
| --- | --- | --- | --- |
| CC1(C)N=C(N)N=C(N)N1c1ccc(Cl)c(Cl)c1 [Compound 16] | >100 | – | Inhibition of wild type M2 channel [3]: neither of the three compounds significantly inhibited; Cytotoxicity MCC [6]: > 100 µM |
| CC1(C)N=C(N)N=C(N)N1c1cc(C(F)(F)F)cc(C(F)(F)F)c1 [Compound 17, 4,6-Diamino-2,2-dimethyl-1-(3,5-ditrifluoromethylphenyl)-1,2-dihydrotriazine hydrochloride] | – | – | Cytotoxicity: MCC ([4]; human): ≥100 µM; Cytotoxicity: MCC ([5]; African green monkey): >100 µM |
| CCC1(C)N=C(N)N=C(N)N1c1ccc(Cl)cc1 (stereo not drawn) [Compound 18] | >100 | >100 | – |
| CC(C)C1(C)N=C(N)N=C(N)N1c1ccc(Cl)cc1 (stereo not drawn) [Compound 19] | >100 | >100 | – |
| NC1=NC2(CCCC2)N(c2ccc(Cl)cc2)C(N)=N1 [Compound 20] | >100 | >100 | – |
| NC1=NC2(CCCC2)N(c2cccc(Cl)c2)C(N)=N1 [Compound 21, 1-(3-Chlorophenyl)-2,2-cyclotetramethylene-4,6-diamino-1,2-dihydrotriazine hydrochloride] | ≥100 | >100 | – |
| NC1=NC2(CCCC2)N(c2cccc(C(F)(F)F)c2)C(N)=N1 [Compound 22, 2,2-Cyclotetramethylene-4,6-diamino-1-(3-trifluoromethylphenyl)-1,2-dihydrotriazine hydrochloride] | ≥100 | >100 | – |
| NC1=NC2(CCCCC2)N(c2cccc(Cl)c2)C(N)=N1 [Compound 24] | ≥100 | >100 | – |
| NC1=NC2(CCCCC2)N(c2cccc(C(F)(F)F)c2)C(N)=N1 [Compound 25, 2,2-Cyclopentamethylene-4,6-diamino-1-(3-trifluoromethylphenyl)-1,2-dihydrotriazine hydrochloride] | ≥100 | >100 | Cytotoxicity MCC [6]: > 100 µM |
| CCCC1N=C(N)N=C(N)N1c1ccc(Cl)cc1 (stereo not drawn) [Compound 27] | >100 | >100 | – |
| NC1=NC(c2ccccc2)N(c2ccc(Cl)cc2)C(N)=N1 (stereo not drawn) [Compound 28] | – | >100 | – |
| CC1(C)N=C(N)N=C(Nc2ccc(Cl)cc2)N1 [Compound 29] | >100 | >100 | – |
| [H]/N=C(\N/C(=N/[H])Nc1ccc(Cl)cc1)NC(C)C [Compound 30, proguanil, reference compound] | >100 | 20 | – |
| CCc1nc(N)nc(N)c1-c1ccc(Cl)cc1 [Compound 32, pyrimethamine, reference compound] | ≥100 | – | Cytotoxicity MCC [6]: > 100 µM |
| COc1c(C)c2c(c(O)c1C/C=C(\C)CCC(=O)O)C(=O)OC2 [Mycophenolic acid] | – | – | EC50 [8]: 1.8 µM; EC50 [9]: 20 µM |
| NC(=O)c1ncn([C@@H]2O[C@H](CO)[C@@H](O)[C@H]2O)n1 [Ribavirin] | – | – | EC50 [10]: 112 µM |
